# PubChem BioAssay AID256 (DTP/NCI, 2004)
# Several values for one entry are separate records, joined by “and”; a condition that tells them apart may be missing. Identical values can stand only once. Toxic doses and inconclusive results are not listed.
# Test system: CD2F1 mice, L1210 leukemia ip, survival T/C
# Experiment: NCI In Vivo Anticancer Drug Screen. Data for tumor model L1210 Leukemia (intraperitoneal) in CD2F1 (CDF1) mice
# Settings: higher = longer survival
# In short: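 In this screen, transplantable tumors were grown in mice given either the compound or its vehicle. Results were expressed as the treated measurement relative to the control measurement.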
structure (smiles),measurement,setting,value
ON(C(=Nc1ccccc1)c1ccccc1Cl)c1ccccc1,T/C,"endpoint: mean survival time, dose: 6.25 mg/kg/injection, schedule: Q01DX009 (ip), vehicle: saline with Tween-80",106 % of control
same,T/C,"endpoint: mean survival time, dose: 6.25 mg/kg/injection, schedule: Q04DX003 (ip), vehicle: saline with Tween-80",102 % of control
same,T/C,"endpoint: mean survival time, dose: 12.5 mg/kg/injection, schedule: Q01DX009 (ip), vehicle: saline with Tween-80",101 % of control
same,T/C,"endpoint: mean survival time, dose: 12.5 mg/kg/injection, schedule: Q04DX003 (ip), vehicle: saline with Tween-80",104 % of control
same,T/C,"endpoint: mean survival time, dose: 25.0 mg/kg/injection, schedule: Q04DX003 (ip), vehicle: saline with Tween-80",102 % of control
same,T/C,"endpoint: mean survival time, dose: 100.0 mg/kg/injection, schedule: Q01DX001 (ip), vehicle: saline",102 % of control
same,T/C,"endpoint: mean survival time, dose: 200.0 mg/kg/injection, schedule: Q01DX001 (ip), vehicle: saline",102 % of control
OC(c1ccccc1)(c1ccccc1)c1ccccc1C(O)(c1ccccc1)c1ccccc1,T/C,"endpoint: mean survival time, dose: 100.0 mg/kg/injection, schedule: Q01DX001 (ip), vehicle: Klucel (hydroxypropylcellulose) (HPC)",90 % of control
same,T/C,"endpoint: mean survival time, dose: 200.0 mg/kg/injection, schedule: Q01DX001 (ip), vehicle: Klucel (hydroxypropylcellulose) (HPC)",90 % of control
CO[C@@]12[C@@H]3N[C@@H]3CN1C1=C(C(=O)C(NCCc3ccc(O)cc3)=C(C)C1=O)[C@@H]2COC(N)=O,T/C,"endpoint: mean survival time, dose: 1.5 mg/kg/injection, schedule: Q01DX001 (ip), vehicle: water",102 % of control
same,T/C,"endpoint: mean survival time, dose: 3.0 mg/kg/injection, schedule: Q01DX001 (ip), vehicle: water",104 % of control and 111 % of control
same,T/C,"endpoint: mean survival time, dose: 6.0 mg/kg/injection, schedule: Q01DX001 (ip), vehicle: water",111 % of control
same,T/C,"endpoint: mean survival time, dose: 12.0 mg/kg/injection, schedule: Q01DX001 (ip), vehicle: water",115 % of control
same,T/C,"endpoint: mean survival time, dose: 48.0 mg/kg/injection, schedule: Q01DX001 (ip), vehicle: water",151 % of control
NC(CSSc1ccccc1)=NC1CCCCC1,T/C,"endpoint: mean survival time, dose: 12.5 mg/kg/injection, schedule: Q01DX001 (ip), vehicle: Klucel (hydroxypropylcellulose) (HPC)",97 % of control
same,T/C,"endpoint: mean survival time, dose: 25.0 mg/kg/injection, schedule: Q01DX001 (ip), vehicle: Klucel (hydroxypropylcellulose) (HPC)",92 % of control
same,T/C,"endpoint: mean survival time, dose: 50.0 mg/kg/injection, schedule: Q01DX001 (ip), vehicle: Klucel (hydroxypropylcellulose) (HPC)",97 % of control
O=C(/C=C1/OCCN1C(=O)Nc1ccccc1)Nc1ccccc1,T/C,"endpoint: mean survival time, dose: 100.0 mg/kg/injection, schedule: Q04DX003 (ip), vehicle: saline with Tween-80",107 % of control
same,T/C,"endpoint: mean survival time, dose: 200.0 mg/kg/injection, schedule: Q04DX003 (ip), vehicle: saline with Tween-80",103 % of control
same,T/C,"endpoint: mean survival time, dose: 400.0 mg/kg/injection, schedule: Q04DX003 (ip), vehicle: saline with Tween-80",97 % of control
O=S(=O)(O)C(O)c1cccnc1 (stereo not given),T/C,"endpoint: mean survival time, dose: 100.0 mg/kg/injection, schedule: Q01DX009 (ip), vehicle: saline with Tween-80",98 % of control
same,T/C,"endpoint: mean survival time, dose: 100.0 mg/kg/injection, schedule: Q04DX003 (ip), vehicle: saline sonified",95 % of control
same,T/C,"endpoint: mean survival time, dose: 200.0 mg/kg/injection, schedule: Q01DX009 (ip), vehicle: saline with Tween-80",96 % of control
same,T/C,"endpoint: mean survival time, dose: 200.0 mg/kg/injection, schedule: Q04DX003 (ip), vehicle: saline sonified",105 % of control
same,T/C,"endpoint: mean survival time, dose: 400.0 mg/kg/injection, schedule: Q01DX009 (ip), vehicle: saline with Tween-80",95 % of control
same,T/C,"endpoint: mean survival time, dose: 400.0 mg/kg/injection, schedule: Q04DX003 (ip), vehicle: saline sonified",89 % of control
CC12CCC(=O)C=C1CCC1C2CCC2(C)C(C(=O)Cn3c(=O)cc[nH]c3=O)CCC12 (stereo not given),T/C,"endpoint: mean survival time, dose: 12.5 mg/kg/injection, schedule: Q04DX003 (ip), vehicle: Klucel (hydroxypropylcellulose) (HPC)",91 % of control
same,T/C,"endpoint: mean survival time, dose: 25.0 mg/kg/injection, schedule: Q04DX003 (ip), vehicle: Klucel (hydroxypropylcellulose) (HPC)",97 % of control
same,T/C,"endpoint: mean survival time, dose: 50.0 mg/kg/injection, schedule: Q04DX003 (ip), vehicle: Klucel (hydroxypropylcellulose) (HPC)",91 % of control
same,T/C,"endpoint: mean survival time, dose: 100.0 mg/kg/injection, schedule: Q04DX003 (ip), vehicle: Klucel (hydroxypropylcellulose) (HPC)",95 % of control
same,T/C,"endpoint: mean survival time, dose: 200.0 mg/kg/injection, schedule: Q04DX003 (ip), vehicle: Klucel (hydroxypropylcellulose) (HPC)",103 % of control
NC(=S)N/N=C/c1nccc2ccccc12,T/C,"endpoint: mean survival time, dose: 6.25 mg/kg/injection, schedule: Q01DX010 (oral), vehicle: saline",97 % of control
same,T/C,"endpoint: mean survival time, dose: 15.0 mg/kg/injection, schedule: Q01DX006 (iv), vehicle: saline",100 % of control
same,T/C,"endpoint: mean survival time, dose: 25.0 mg/kg/injection, schedule: Q01DX009 (sc), vehicle: saline",97 % of control
same,T/C,"endpoint: mean survival time, dose: 30.0 mg/kg/injection, schedule: Q01DX006 (iv), vehicle: saline",100 % of control
same,T/C,"endpoint: mean survival time, dose: 50.0 mg/kg/injection, schedule: Q01DX001 (sc), vehicle: saline",98 % of control
same,T/C,"endpoint: mean survival time, dose: 50.0 mg/kg/injection, schedule: Q01DX009 (sc), vehicle: saline",103 % of control
same,T/C,"endpoint: mean survival time, dose: 75.0 mg/kg/injection, schedule: Q01DX009 (ip), vehicle: saline with Tween-80",110 % of control
same,T/C,"endpoint: mean survival time, dose: 168.0 mg/kg/injection, schedule: Q01DX Z (ip), vehicle: saline",86 % of control
same,T/C,"endpoint: mean survival time, dose: 200.0 mg/kg/injection, schedule: Q01DX001 (sc), vehicle: saline",100 % of control
same,T/C,"endpoint: mean survival time, dose: 360.0 mg/kg/injection, schedule: Q01DX001 (ip), vehicle: saline",110 % of control
CC1C(=O)OC2C1CCC1(C)C(O)OC(=O)C3(O)OC231 (stereo not given),T/C,"endpoint: mean survival time, dose: 100.0 mg/kg/injection, schedule: Q04DX002 (ip), vehicle: saline with Tween-80",104 % of control
same,T/C,"endpoint: mean survival time, dose: 200.0 mg/kg/injection, schedule: Q04DX002 (ip), vehicle: saline with Tween-80",96 % of control
same,T/C,"endpoint: mean survival time, dose: 400.0 mg/kg/injection, schedule: Q04DX002 (ip), vehicle: saline with Tween-80",96 % of control
c1ccc([P+](c2ccccc2)(c2ccccc2)C2OCCO2)cc1,T/C,"endpoint: mean survival time, dose: 100.0 mg/kg/injection, schedule: Q01DX001 (ip), vehicle: saline with Tween-80",112 % of control
COc1ccc(N/C=C/C2=[N+](C)c3ccccc3C2(C)C)c(OC)c1,T/C,"endpoint: mean survival time, dose: 50.0 mg/kg/injection, schedule: Q01DX009 (ip), vehicle: saline",103 % of control
same,T/C,"endpoint: mean survival time, dose: 100.0 mg/kg/injection, schedule: Q01DX009 (ip), vehicle: saline",105 % of control
same,T/C,"endpoint: mean survival time, dose: 100.0 mg/kg/injection, schedule: Q04DX003 (ip), vehicle: saline",89 % of control
same,T/C,"endpoint: mean survival time, dose: 200.0 mg/kg/injection, schedule: Q01DX009 (ip), vehicle: saline",97 % of control
same,T/C,"endpoint: mean survival time, dose: 200.0 mg/kg/injection, schedule: Q04DX003 (ip), vehicle: saline",89 % of control
COc1cccc(Sc2ccc([N+](=O)[O-])c3no[n+]([O-])c23)c1,T/C,"endpoint: median survival time, dose: 1.85 mg/kg/injection, schedule: Q01DX005 (ip), vehicle: saline with Tween-80",102 % of control
same,T/C,"endpoint: median survival time, dose: 1.87 mg/kg/injection, schedule: Q01DX005 (ip), vehicle: saline with Tween-80",106 % of control
same,T/C,"endpoint: median survival time, dose: 3.75 mg/kg/injection, schedule: Q01DX005 (ip), vehicle: saline with Tween-80",108 % of control and 109 % of control
same,T/C,"endpoint: median survival time, dose: 7.5 mg/kg/injection, schedule: Q01DX005 (ip), vehicle: saline with Tween-80",107 % of control and 111 % of control
same,T/C,"endpoint: median survival time, dose: 15.0 mg/kg/injection, schedule: Q01DX005 (ip), vehicle: saline with Tween-80",108 % of control
same,T/C,"endpoint: median survival time, dose: 15.0 mg/kg/injection, schedule: Q01DX009 (ip), vehicle: saline with Tween-80",102 % of control and 104 % of control
same,T/C,"endpoint: median survival time, dose: 30.0 mg/kg/injection, schedule: Q01DX005 (ip), vehicle: saline with Tween-80",102 % of control and 109 % of control
same,T/C,"endpoint: median survival time, dose: 30.0 mg/kg/injection, schedule: Q01DX009 (ip), vehicle: saline with Tween-80",101 % of control and 103 % of control
same,T/C,"endpoint: median survival time, dose: 60.0 mg/kg/injection, schedule: Q01DX009 (ip), vehicle: saline with Tween-80",96 % of control and 108 % of control
same,T/C,"endpoint: median survival time, dose: 120.0 mg/kg/injection, schedule: Q01DX009 (ip), vehicle: saline with Tween-80",100 % of control
CCOc1cc(N)nc2c1nnn2C1OC(CO)C(O)C1O (stereo not given),T/C,"endpoint: mean survival time, dose: 6.25 mg/kg/injection, schedule: Q01DX005 (ip), vehicle: other",107 % of control
same,T/C,"endpoint: mean survival time, dose: 12.5 mg/kg/injection, schedule: Q01DX005 (ip), vehicle: other",98 % of control
same,T/C,"endpoint: mean survival time, dose: 25.0 mg/kg/injection, schedule: Q01DX005 (ip), vehicle: other",101 % of control
same,T/C,"endpoint: mean survival time, dose: 50.0 mg/kg/injection, schedule: Q01DX005 (ip), vehicle: other",98 % of control
same,T/C,"endpoint: mean survival time, dose: 100.0 mg/kg/injection, schedule: Q01DX005 (ip), vehicle: other",101 % of control
same,T/C,"endpoint: mean survival time, dose: 200.0 mg/kg/injection, schedule: Q01DX005 (ip), vehicle: other",98 % of control
Cc1cc(/C=C/c2ccc3cc(N(C)C)ccc3[n+]2C)c(C)n1-c1ccccc1,T/C,"endpoint: mean survival time, dose: 0.1 mg/kg/injection, schedule: Q01DX009 (ip), vehicle: saline with Tween-80",95 % of control
same,T/C,"endpoint: mean survival time, dose: 0.2 mg/kg/injection, schedule: Q01DX009 (ip), vehicle: saline with Tween-80",95 % of control
same,T/C,"endpoint: mean survival time, dose: 0.39 mg/kg/injection, schedule: Q01DX009 (ip), vehicle: saline with Tween-80",98 % of control
same,T/C,"endpoint: mean survival time, dose: 0.78 mg/kg/injection, schedule: Q01DX009 (ip), vehicle: saline with Tween-80",101 % of control
